Consider 24 compounds from patent US11873298B2, “Compounds and uses thereof” (JANSSEN PHARMACEUTICA NV, priority 2017, dated 2024).

The target of test [1] is T1, SCD5 (Homo sapiens, UniProt Q86SK9).
T1 construct: host or cells: S. cerevisiae ole1Δ strain (W303 pdr1Δ pdr3Δ background), plasmid pRS316 with TDH3 promoter and CYC1 terminator
T1 sequence (Q86SK9 1-330): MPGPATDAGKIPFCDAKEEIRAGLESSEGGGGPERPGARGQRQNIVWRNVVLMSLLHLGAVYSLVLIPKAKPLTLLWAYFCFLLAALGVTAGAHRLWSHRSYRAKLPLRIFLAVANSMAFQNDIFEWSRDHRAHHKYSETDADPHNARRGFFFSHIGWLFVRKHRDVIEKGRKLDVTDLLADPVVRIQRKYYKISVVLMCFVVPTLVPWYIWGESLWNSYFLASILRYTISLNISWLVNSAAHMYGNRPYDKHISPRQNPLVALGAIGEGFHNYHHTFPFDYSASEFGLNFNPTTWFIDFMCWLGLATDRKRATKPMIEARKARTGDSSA
Kind of test: Growth inhibition of humanized yeast strain expressing SCD5 as sole desaturase. The class given is cell-based. The procedure, abridged: (§1)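 Plasmid-complemented ole1Δ yeast, drug-pump deleted (pdr1Δ pdr3Δ), depend solely on the introduced Ole1, SCD1 or SCD5 desaturase. Compounds are added from DMSO to cells in uracil-free galactose medium, 2× density 0.02, and OD600 is read after 24 h or 40 h respectively.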

For test [2], the target named is T2, SCD1 (Homo sapiens, UniProt O00767).
T2 construct: host or cells: S. cerevisiae ole1Δ strain (W303 pdr1Δ pdr3Δ background), plasmid pRS316 with TDH3 promoter and CYC1 terminator
T2 sequence (O00767 1-359): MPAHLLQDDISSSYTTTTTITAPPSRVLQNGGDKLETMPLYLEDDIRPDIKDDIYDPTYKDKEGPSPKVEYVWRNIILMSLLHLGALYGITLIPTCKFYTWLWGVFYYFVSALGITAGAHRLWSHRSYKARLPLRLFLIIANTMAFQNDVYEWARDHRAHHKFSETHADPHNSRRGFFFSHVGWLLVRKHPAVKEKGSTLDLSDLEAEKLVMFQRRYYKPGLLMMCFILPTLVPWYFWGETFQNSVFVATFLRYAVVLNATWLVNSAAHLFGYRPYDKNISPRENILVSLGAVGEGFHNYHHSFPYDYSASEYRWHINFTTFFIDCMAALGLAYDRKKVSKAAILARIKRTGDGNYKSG
Nature of the test: Growth inhibition of humanized yeast strain expressing SCD1 as sole desaturase. It is filed as cell-based. The method, boiled down:
as §1

Where [3] appears, read: growth inhibition of humanized yeast strain expressing human SCD5.
Setting [4] is: growth inhibition of humanized yeast strain expressing human SCD1.

What is called pIC50 is the negative decadic logarithm of the IC50, by convention in mol/L. High values mean a low IC50, low ones a high IC50.

pIC50: −log10 of the molar value.

`CN(c1cc(-c2nc(N3CCN(C(=O)OC(C)(C)C)CC3)no2)ccn1)C1COC1` [Compound 1022]: the pIC50 in test [1] (humanized yeast strain, 40 h) is 8.00; in test [2] (humanized yeast strain, 40 h) it was below 4.35.

Regarding `CC(C)(C)OC(=O)N1CCC(c2noc(-c3ccnc(OC4COC4)c3)n2)CC1` [Compound 982], the pIC50 in test [1] (humanized yeast strain, 40 h) is 6.49; in test [2] (humanized yeast strain, 40 h), 8.00.

As to `C[C@H]1CN(c2noc(-c3ccc4cnn(C5COC5)c4c3)n2)CCN1C(=O)OC(C)(C)C` [Compound 956], the pIC50 in test [1] (humanized yeast strain, 40 h) is 5.61; in test [2] (humanized yeast strain, 40 h) it was below 4.35.

Turning to `CC(C)n1nc(CCS(C)(=O)=O)c2ccc(-c3noc(C4CCN(C(=O)OC(C)(C)C)CC4)n3)cc21` [Compound 767], the pIC50 was 8.00 in test [1] (humanized yeast strain, 40 h) and below 4.35 in test [2] (humanized yeast strain, 40 h).

For `CC(C)C(=O)N1CCC(c2noc(-c3ccnc(-c4cnn(C)c4)c3)n2)CC1` [Compound 1187], the negative logarithm of the IC50 (pIC50) in test [1] (humanized yeast strain, 40 h) is below 4.35; in test [2] (humanized yeast strain, 40 h), below 4.35.

For `CC(C)(C)OC(=O)N1C[C@@H]2[C@H](C1)[C@H]2NC(=O)OCc1ccccc1` [Compound 774], the pIC50 was below 4.35 in test [1] (humanized yeast strain, 40 h) and below 4.35 in test [2] (humanized yeast strain, 40 h).

Consider `CC(C)(C)OC(=O)N1CCC(c2noc(-c3cccc([C@H]4CCOC4)c3)n2)CC1` [Compound 789], for which the negative-log IC50 (pIC50) is 8.00 in test [1] (humanized yeast strain, 40 h) and below 4.35 in test [2] (humanized yeast strain, 40 h).

As to `CC(C)n1ncc2ccc(-c3nc(C4CCN(CC5CC5)C(=O)C4)no3)cc21` (stereo not drawn) [Compound 1146], the pIC50 was 6.42 in test [1] (humanized yeast strain, 40 h) and below 4.35 in test [2] (humanized yeast strain, 40 h).

As to `CC(=O)N1CC(n2cc3ccc(-c4noc(N5CCN(C(=O)OC(C)(C)C)CC5)n4)cc3n2)C1` [Compound 898], the pIC50 was 7.15 in test [1] (humanized yeast strain, 40 h) and below 4.35 in test [2] (humanized yeast strain, 40 h).

For the compound `CC(C)n1ncc2ccc(-c3nc(C4CCN(C(=O)CC5CC5)CC4)no3)cc21` [Compound 853], the negative logarithm of the IC50 (pIC50) in test [1] (humanized yeast strain, 40 h) was 8.00; in test [2] (humanized yeast strain, 40 h) it was below 4.35.

`CC(C)n1ncc2ccc(-c3noc(C4(F)CCN(C(=O)OC5CC5)CC4)n3)cc21` [Compound 624]: the pIC50 was 6.65 in test [1] (setting [3]) and below 4.35 in test [2] (setting [4]).

On to `CC(C)C(=O)N1CCC(c2nc(-c3ccnc(F)c3)no2)CC1` [Compound 1124], for which the pIC50 in test [1] (humanized yeast strain, 40 h) is below 4.35; in test [2] (humanized yeast strain, 40 h), below 4.35.

For `CC(C)(C)OC(=O)N1CCC(c2noc(-c3ccnc(CC4CC4)c3)n2)CC1` [Compound 1082], the pIC50 in test [1] (humanized yeast strain, 40 h) was 6.44; in test [2] (humanized yeast strain, 40 h), below 4.35.

Turning to `CCC(=O)N1CCC(c2noc(-c3cc(F)c4cnn(C5COC5)c4c3)n2)CC1` [Compound 1072], the negative logarithm of the IC50 (pIC50) in test [1] (humanized yeast strain, 40 h) is 7.68; in test [2] (humanized yeast strain, 40 h) it was below 4.35.

For `Cn1cc(-c2cc(-c3nc(C4CCN(C(=O)OC(C)(C)C)CC4)no3)ccn2)cn1` [Compound 1182], the pIC50 in test [1] (humanized yeast strain, 40 h) is 6.14; in test [2] (humanized yeast strain, 40 h), 6.08.

For the compound `C=C(F)/C=C/n1ncc2ccc(-c3noc(C4CCN(C(=O)OC(C)(C)C)CC4)n3)cc21` [Compound 738], the pIC50 in test [1] (setting [3]) and in test [2] (setting [4]) was below 4.35 throughout.

For `COC(=O)N1CCCN(c2noc(-c3cc(F)c4cnn(C5COC5)c4c3)n2)CC1` [Compound 963], the negative-log IC50 (pIC50) is 6.80 in test [1] (humanized yeast strain, 40 h) and below 4.35 in test [2] (humanized yeast strain, 40 h).

Consider `CC(C)(C)OC(=O)N1CCC(c2cc(-c3ccc4cnn(C5COC5)c4c3)on2)CC1` [Compound 1026], for which the pIC50 in test [1] (humanized yeast strain, 40 h) is 6.70; in test [2] (humanized yeast strain, 40 h) it was 5.40.

`O=C(N1CCC(c2cc(-c3cc4c(cn3)cnn4C3COC3)on2)CC1)C1(F)CC1` [Compound 1110]: the pIC50 in test [1] (humanized yeast strain, 40 h) was 8.00; in test [2] (humanized yeast strain, 40 h), below 4.35.

For the compound `C[C@@H]1C[C@@H](c2noc(-c3ccc4cnn(C5COC5)c4c3)n2)CCN1C(=O)OC(C)(C)C` [Compound 1019], the pIC50 was 8.00 in test [1] (humanized yeast strain, 40 h) and 4.91 in test [2] (humanized yeast strain, 40 h).

In the case of `C=C(C)c1ncn2ccc(-c3noc(C4CCN(C(=O)OC(C)(C)C)CC4)n3)cc12` [Compound 855], the pIC50 is below 4.35 in test [1] (humanized yeast strain, 40 h) and below 4.35 in test [2] (humanized yeast strain, 40 h).

`O=C(C1CCC1)N1CCN(c2nnc(-c3ccc4cnn(C5COC5)c4c3)o2)CC1` [Compound 996]: the negative logarithm of the IC50 (pIC50) in test [1] (humanized yeast strain, 40 h) is 5.30; in test [2] (humanized yeast strain, 40 h), below 4.35.

Regarding `COC(=O)N1CCC(c2noc(-c3ccc4cnn(C5CCC(F)(F)C5)c4c3)n2)CC1` (stereo not drawn) [Compound 1078], the negative logarithm of the IC50 (pIC50) in test [1] (humanized yeast strain, 40 h) is 7.48; in test [2] (humanized yeast strain, 40 h), below 4.35.

Take `O=C(N1CCC(c2noc(-c3ccnc(Cl)c3)n2)CC1)C1(F)CC1` [Compound 1122]: the negative-log IC50 (pIC50) was 4.88 in test [1] (humanized yeast strain, 40 h) and below 4.35 in test [2] (humanized yeast strain, 40 h).
